Experimental data taken from patent US10450311B2, “Pesticidally active heterocyclic derivatives with sulphur containing substituents” (Syngenta Participations AG, priority 2014, dated 2019).

How the values were obtained:
Type in all cases: in vivo
[1] = test system: Myzus persicae (Green Peach Aphid); test: Activity against Myzus persicae, roots of infested pea seedlings in test solution; details: 144 h, test rate of 24 ppm, 6 days
Method: Example B6: Activity Against Myzus persicae (Green Peach Aphid)
Roots of pea seedlings infested with an aphid population of mixed ages were placed directly in the aqueous test solutions prepared from 10′000 DMSO stock solutions. The samples were assessed for mortality 6 days after placing seedlings in test solutions.

[2] = test system: Spodoptera littoralis (Egyptian Cotton Leaf Worm); test: Activity against Spodoptera littoralis, compound in agar taken up by lettuce; details: 144 h, test rate of 12.5 ppm, lettuce root uptake, 6 days after infestation, read-out: effect in at least one of the three categories (mortality, anti-feedancy, or growth inhibition)
Source text: Example B10: Activity Against Spodoptera littoralis (Egyptian Cotton Leaf Worm)
(§1) Test compounds were applied by pipette from 10′000 ppm DMSO stock solutions into 24-well plates and mixed with agar. Lettuce seeds were placed on the agar and the multi well plate was closed by another plate which contains also agar. After 7 days the roots have absorbed the compound and the lettuce has grown into the lid plate. The lettuce leafs were now cut off into the lid plate. Spodoptera eggs were pipetted through a plastic stencil on a humid gel blotting paper and the plate closed with it. The samples were assessed for mortality, anti-feedant effect and growth inhibition in comparison to untreated samples 6 days after infestation.

[3] = test system: Aedes aegypti (Yellow Fever Mosquito); test: whole plant or invertebrate; details: 48 h, test rate of 5 ppm, L2 larvae in 96-well plates, incubation period of 2 days, read-out: effect in at least one of the two categories (mortality or growth inhibition)
Method: Example B14: Activity Against Aedes aegypti (Yellow Fever Mosquito)
10 to 15 Aedes larvae (L2) together with a nutrition mixture were placed in 96-well microtiter plates. Test compounds were pipetted into the wells. After an incubation period of 2 days insects were assessed for mortality and growth inhibition.

[4] = test system: Plutella xylostella (Diamond Back Moth); test: Activity against Plutella xylostella, treated artificial diet; details: 120 h, application rate of 200 ppm, L2 larvae on artificial diet, 5 days after infestation, read-out: effect in at least one of the two categories (mortality or growth inhibition)
Method: Example B8: Activity Against Plutella xylostella (Diamond Back Moth)
24-well microtiter plates with artificial diet were treated with aqueous test solutions prepared from 10′000 ppm DMSO stock solutions by pipetting. After drying, the plates were infested with L2 larvae (10 to 15 per well). The samples were assessed for mortality and growth inhibition in comparison to untreated samples 5 days after infestation.

[5] = test system: Diabrotica balteata (Corn Root Worm); test: Activity against Diabrotica balteata, sprayed maize sprouts; details: 96 h, application rate of 200 ppm, larvae on maize sprouts, 4 days after infestation
Method: Example B2: Activity Against Diabrotica balteata (Corn Root Worm)
Maize sprouts, placed on an agar layer in 24-well microtiter plates were treated with aqueous test solutions prepared from 10′000 ppm DMSO stock solutions by spraying. After drying, the plates were infested with […] (6 to 10 per well). The samples were assessed for mortality 4 days after infestation.

[6] = test system: Spodoptera littoralis (Egyptian Cotton Leaf Worm); test: Activity against Spodoptera littoralis, sprayed cotton leaf discs; details: foliar, 72 h, application rate of 200 ppm, L1 larvae on cotton leaf discs, 3 days after infestation, read-out: control (at least one of mortality, anti-feedant effect, growth inhibition)
Method: Example B9: Activity Against Spodoptera littoralis (Egyptian Cotton Leaf Worm)
Cotton leaf discs were placed on agar in 24-well microtiter plates and sprayed with aqueous test solutions prepared from 10′000 ppm DMSO stock solutions. After drying the leaf discs were infested with five L1 larvae. The samples were assessed for mortality, anti-feedant effect, and growth inhibition in comparison to untreated samples 3 days after infestation. Control of Spodoptera littoralis by a test sample is when at least one of mortality, anti-feedant effect, and growth inhibition is higher than the untreated sample.

[7] = test system: Bemisia tabaci (Cotton White Fly); test: Activity against Bemisia tabaci, sprayed cotton leaf discs; details: foliar, 144 h, application rate of 200 ppm, adult white flies on cotton leaf discs, 6 days after incubation
Method: Example B1: Activity Against Bemisia tabaci (Cotton White Fly)
Cotton leaf discs were placed on agar in 24-well microtiter plates and sprayed with aqueous test solutions prepared from 10′000 ppm DMSO stock solutions. After drying the leaf discs were infested with adult white flies. The samples were checked for mortality 6 days after incubation. […] A35, A36 and A47. A1. A2, A3, A8, A10, A14 and A12.

[8] = test system: Spodoptera littoralis (Egyptian Cotton Leaf Worm); test: Activity against Spodoptera littoralis, systemic activity; details: 144 h, test rate of 12.5 ppm, in agar, lettuce root uptake, 6 days after infestation
Source text: Example B11: Activity Against Spodoptera littoralis (Egyptian Cotton Leaf Worm), Systemic Activity
as §1, with “mortality” for “mortality, anti-feedant effect and growth inhibition in comparison to untreated samples”

[9] = test system: Myzus persicae (Green Peach Aphid); test: Activity against Myzus persicae, sucrose solution under Parafilm; details: 120 h, test rate of 12 ppm, mixed with sucrose solution, 5 days after infestation
Source text: Example B7: Activity Against Myzus persicae (Green Peach Aphid)
Test compounds from 10′000 ppm DMSO stock solutions were applied by pipette into 24-well microtiter plates and mixed with sucrose solution. The plates were closed with a stretched Parafilm. A plastic stencil with 24 holes was placed onto the plate and infested pea seedlings were placed directly on the Parafilm. The infested plate was closed with a gel blotting paper and another plastic stencil and then turned upside down. The samples were assessed for mortality 5 days after infestation. […] A30 and A32.

[10] = test system: Frankliniella occidentalis (Western Flower Thrips); test: Activity against Frankliniella occidentalis, sprayed sunflower leaf discs; details: foliar, 168 h, application rate of 200 ppm, population of mixed ages on sunflower leaf discs, 7 days after infestation
Method: Example B4: Activity Against Frankliniella occidentalis (Western Flower Thrips)
(§2) Sunflower leaf discs were placed on agar in 24-well microtiter plates and sprayed with aqueous test solutions prepared from 10′000 DMSO stock solutions. After drying the leaf discs were infested with a Frankliniella population of mixed ages. The samples were assessed for mortality 7 days after infestation.

[11] = test system: Myzus persicae (Green Peach Aphid); test: Activity against Myzus persicae, sprayed sunflower leaf discs; details: foliar, 144 h, application rate of 200 ppm, aphid population of mixed ages on sunflower leaf discs, 6 days after infestation
Method: Example B5: Activity Against Myzus persicae (Green Peach Aphid)
Sunflower leaf discs were placed on agar in a 24-well microtiter plate and sprayed with aqueous test solutions prepared from 10′000 ppm DMSO stock solutions. After drying, the leaf discs were infested with an aphid population of mixed ages. The samples were assessed for mortality 6 days after infestation.

[12] = test system: Thrips tabaci (Onion Thrips); test: Activity against Thrips tabaci, feeding/contact activity; details: foliar, 144 h, application rate of 200 ppm, thrips population of mixed ages on sunflower leaf discs, 6 days after infestation
Method: Example B13: Activity Against Thrips tabaci (Onion Thrips) Feeding/Contact Activity
as §2, with “10′000 ppm” for “10′000”, “thrips” for “Frankliniella”, “6” for “7”

[13] = test system: Euschistus heros (Neotropical Brown Stink Bug); test: Activity against Euschistus heros, sprayed soybean leaf; details: 120 h, application rate of 200 ppm, N-2 nymphs on soybean leaf, 5 days after infestation
Method: Example B3: Activity Against Euschistus heros (Neotropical Brown Stink Bug)
Soybean leaf on agar in 24-well microtiter plates were sprayed with aqueous test solutions prepared from 10′000 ppm DMSO stock solutions. After drying the leaf were infested with N-2 nymphs. The samples were assessed for mortality 5 days after infestation.

[14] = test system: Tetranychus urticae (Two-Spotted Spider Mite); test: Activity against Tetranychus urticae, feeding/contact activity; details: foliar, 192 h
Method: Example B12: Activity Against Tetranychus urticae (Two-Spotted Spider Mite): Feeding/Contact Activity
Bean leaf discs on agar in 24-well microtiter plates were sprayed with aqueous test solutions prepared from 10′000 ppm DMSO stock solutions. After drying the leaf discs were infested with a mite population of mixed ages. The samples were assessed for mortality on mixed population (mobile stages) 8 days after infestation.

CCS(=O)(=O)c1cc(C(F)(F)F)cnc1-c1nc2cc(C(F)(F)F)n(C)c(=O)c2n1C [Compound A1, 2-[3-ethylsulfonyl-5-(trifluoromethyl)-2-pyridyl]-3,5-dimethyl-6-(trifluoromethyl)imidazo[4,5-c]pyridin-4-one]
≥ 80%: mortality at 24 ppm [1] | percent control (mortality, anti-feedancy or growth inhibition) at 12.5 ppm [2] | percent effect (mortality or growth inhibition) at 5 ppm [3] | percent effect (mortality or growth inhibition) at 200 ppm [4] | mortality at 200 ppm [5] | percent control (mortality, anti-feedant effect or growth inhibition) at 200 ppm [6] | mortality at 200 ppm [7] | mortality at 12.5 ppm [8] | mortality at 12 ppm [9] | mortality at 200 ppm [10] | mortality at 200 ppm [11] | mortality at 200 ppm [12] | mortality at 200 ppm [13]

CCSc1cc(Br)cnc1-c1nc2cc(C(F)(F)F)n(C)c(=O)c2n1C [Compound A20, 2-(5-bromo-3-ethylsulfanyl-2-pyridyl)-3,5-dimethyl-6-(trifluoromethyl)imidazo[4,5-c]pyridin-4-one]
≥ 80%: mortality at 200 ppm [14] | mortality at 200 ppm [11] | mortality at 200 ppm [13]
